Measurements published in PubChem BioAssay AID248 (DTP/NCI, 2004).
Several values for one entry are separate records, joined by “and”; a condition that tells them apart may be missing. Equal entries are not always repeated. Inconclusive results and toxic doses are left out. No stated cut-off is given here; in the data, active means T/C of 150% or more; inactive means T/C below 125%.

Tested on: L1210 leukemia ip in BDF1 mice, survival T/C
Experiment: NCI In Vivo Anticancer Drug Screen. Data for tumor model L1210 Leukemia (intraperitoneal) in B6D2F1 (BDF1) mice
Settings: endpoint: mean survival time, higher = longer survival
In short: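 Each compound was tested against a transplantable tumor grown in mice. The endpoint was survival, with treated animals benchmarked against vehicle controls as a simple ratio.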

[1] = dose: 100.0 mg/kg/injection, schedule: Q04DX002 (ip), vehicle: Klucel (hydroxypropylcellulose) (HPC)
[2] = dose: 200.0 mg/kg/injection, schedule: Q04DX002 (ip), vehicle: Klucel (hydroxypropylcellulose) (HPC)
[3] = dose: 400.0 mg/kg/injection, schedule: Q04DX002 (ip), vehicle: Klucel (hydroxypropylcellulose) (HPC)
[4] = dose: 100.0 mg/kg/injection, schedule: Q04DX003 (ip), vehicle: saline with Tween-80
[5] = dose: 200.0 mg/kg/injection, schedule: Q04DX003 (ip), vehicle: saline with Tween-80
[6] = dose: 400.0 mg/kg/injection, schedule: Q04DX003 (ip), vehicle: saline with Tween-80
[7] = dose: 25.0 mg/kg/injection, schedule: Q04DX003 (ip), vehicle: Klucel (hydroxypropylcellulose) (HPC)
[8] = dose: 50.0 mg/kg/injection, schedule: Q04DX003 (ip), vehicle: Klucel (hydroxypropylcellulose) (HPC)
[9] = dose: 50.0 mg/kg/injection, schedule: Q01DX001 (ip), vehicle: carboxymethylcellulose (CMC)
[10] = dose: 100.0 mg/kg/injection, schedule: Q04DX003 (ip), vehicle: Klucel (hydroxypropylcellulose) (HPC)
[11] = dose: 100.0 mg/kg/injection, schedule: Q01DX001 (ip), vehicle: saline with Tween-80
[12] = dose: 200.0 mg/kg/injection, schedule: Q01DX001 (ip), vehicle: saline with Tween-80
[13] = dose: 400.0 mg/kg/injection, schedule: Q01DX001 (ip), vehicle: saline with Tween-80
[14] = dose: 100.0 mg/kg/injection, schedule: Q01DX009 (ip), vehicle: saline with Tween-80
[15] = dose: 200.0 mg/kg/injection, schedule: Q01DX009 (ip), vehicle: saline with Tween-80
[16] = dose: 100.0 mg/kg/injection, schedule: Q01DX001 (ip), vehicle: saline
[17] = dose: 200.0 mg/kg/injection, schedule: Q01DX001 (ip), vehicle: saline
[18] = dose: 400.0 mg/kg/injection, schedule: Q01DX001 (ip), vehicle: saline
[19] = dose: 200.0 mg/kg/injection, schedule: Q04DX003 (ip), vehicle: Klucel (hydroxypropylcellulose) (HPC)
[20] = dose: 400.0 mg/kg/injection, schedule: Q04DX003 (ip), vehicle: Klucel (hydroxypropylcellulose) (HPC)
[21] = dose: 100.0 mg/kg/injection, schedule: Q01DX009 (ip), vehicle: Klucel (hydroxypropylcellulose) (HPC)
[22] = dose: 200.0 mg/kg/injection, schedule: Q01DX009 (ip), vehicle: Klucel (hydroxypropylcellulose) (HPC)

Measured: T/C

c1ccc(OCCOCCOc2ccccc2)cc1
inactive: dose: 75.0 mg/kg/injection, schedule: Q01DX009 (ip), vehicle: Klucel (hydroxypropylcellulose) (HPC) 96 % of control | [1] 98 % of control | dose: 150.0 mg/kg/injection, schedule: Q01DX009 (ip), vehicle: Klucel (hydroxypropylcellulose) (HPC) 114 % of control | [2] 102 % of control | dose: 300.0 mg/kg/injection, schedule: Q01DX009 (ip), vehicle: Klucel (hydroxypropylcellulose) (HPC) 96 % of control | [3] 91 % of control

O=[N+]([O-])c1ccc(Cl)c(CNc2ncnc3nc[nH]c23)c1
inactive: [4] 92 % of control | [5] 93 % of control | [6] 106 % of control

COc1cccc(NC(=S)Nc2ccc(O)cc2)c1
inactive: [1] 99 % of control | [2] 101 % of control | [3] 104 % of control

O=[N+]([O-])c1ccc(C=C2C=c3ccccc3=C2)cc1
inactive: dose: 12.5 mg/kg/injection, schedule: Q04DX003 (ip), vehicle: Klucel (hydroxypropylcellulose) (HPC) 94 % of control | [7] 96 % of control | [8] 97 % of control

CC(=O)Nc1ccc(C(=O)CCl)cc1
inactive: dose: 25.0 mg/kg/injection, schedule: Q01DX009 (ip), vehicle: Klucel (hydroxypropylcellulose) (HPC) 95 % of control | [7] 93 % of control and 101 % of control | [9] 101 % of control | dose: 50.0 mg/kg/injection, schedule: Q01DX009 (ip), vehicle: Klucel (hydroxypropylcellulose) (HPC) 88 % of control | [8] 105 % of control | [10] 110 % of control

CN(C)N=Nc1ccc(S(N)(=O)=O)cc1
inactive: dose: 50.0 mg/kg/injection, schedule: Q01DX001 (ip), vehicle: saline with Tween-80 98 % of control | dose: 50.0 mg/kg/injection, schedule: Q04DX003 (ip), vehicle: saline with Tween-80 103 % of control and 105 % of control | [11] 102 % of control | [4] 103 % of control and 105 % of control | [12] 104 % of control | [5] 105 % of control | [13] 105 % of control | [6] 106 % of control and 112 % of control

COc1ccccc1Cl
inactive: [14] 94 % of control | [4] 106 % of control | [15] 86 % of control | [5] 104 % of control | [6] 93 % of control

ClCCC1CNCCN1 (centres undefined)
inactive: dose: 100.0 mg/kg/injection, schedule: Q01DX009 (ip), vehicle: saline 87 % of control | dose: 100.0 mg/kg/injection, schedule: Q04DX003 (ip), vehicle: saline 96 % of control | dose: 200.0 mg/kg/injection, schedule: Q01DX009 (ip), vehicle: saline 89 % of control | dose: 200.0 mg/kg/injection, schedule: Q04DX003 (ip), vehicle: saline 96 % of control | dose: 400.0 mg/kg/injection, schedule: Q01DX009 (ip), vehicle: saline 89 % of control | dose: 400.0 mg/kg/injection, schedule: Q04DX003 (ip), vehicle: saline 103 % of control

Nc1ccccc1C(=O)N/N=C/c1cccc(O)c1
inactive: [1] 98 % of control | [2] 103 % of control | [3] 113 % of control

Cc1cc(C)c(N(CC(=O)O)S(=O)(=O)c2ccccc2)c(C)c1Cl
inactive: dose: 50.0 mg/kg/injection, schedule: Q01DX001 (ip), vehicle: Klucel (hydroxypropylcellulose) (HPC) 100 % of control | dose: 100.0 mg/kg/injection, schedule: Q01DX001 (ip), vehicle: Klucel (hydroxypropylcellulose) (HPC) 86 % of control | dose: 200.0 mg/kg/injection, schedule: Q01DX001 (ip), vehicle: Klucel (hydroxypropylcellulose) (HPC) 91 % of control

CC(c1ccccc1)n1cnc2c(Cl)ncnc21 (centres undefined)
inactive: [16] 98 % of control | [17] 101 % of control | [18] 110 % of control

CSc1nc(Cl)c2ccn(C)c2n1
inactive: dose: 75.0 mg/kg/injection, schedule: Q01DX001 (ip), vehicle: other 100 % of control | dose: 150.0 mg/kg/injection, schedule: Q01DX001 (ip), vehicle: other 96 % of control | dose: 300.0 mg/kg/injection, schedule: Q01DX001 (ip), vehicle: other 100 % of control

c1ccc(-c2nc3ccccc3[nH]2)cc1
inactive: dose: 55.0 mg/kg/injection, schedule: Q01DX Z (ip), vehicle: methylcellulose (MC) 107 % of control | dose: 83.0 mg/kg/injection, schedule: Q01DX Z (ip), vehicle: methylcellulose (MC) 103 % of control | [1] 109 % of control and 95 % of control | dose: 125.0 mg/kg/injection, schedule: Q01DX Z (ip), vehicle: methylcellulose (MC) 100 % of control | [2] 103 % of control and 106 % of control | [3] 109 % of control and 98 % of control

C=CCOc1ccc(C=O)cc1OCC=C
inactive: [10] 101 % of control | [19] 96 % of control | [20] 101 % of control

FC(F)(F)c1nc2ccccc2[nH]1
inactive: dose: 50.0 mg/kg/injection, schedule: Q04DX002 (ip), vehicle: Klucel (hydroxypropylcellulose) (HPC) 86 % of control | [1] 100 % of control | [2] 93 % of control

C/C=C/C=C/COC(=O)CCCCCCCCC
inactive: dose: 100.0 mg/kg/injection, schedule: Q04DX002 (ip), vehicle: saline 100 % of control | dose: 200.0 mg/kg/injection, schedule: Q04DX002 (ip), vehicle: saline 121 % of control | dose: 400.0 mg/kg/injection, schedule: Q04DX002 (ip), vehicle: saline 108 % of control

CN(C)C(=S)N(C(=S)N(C)C)c1ccccc1
inactive: [16] 95 % of control | [17] 103 % of control | [18] 108 % of control

COc1cc([N+](=O)[O-])ccc1NC(=O)Nc1ccc(S(N)(=O)=O)cc1
inactive: [11] 98 % of control | [14] 103 % of control and 107 % of control | dose: 100.0 mg/kg/injection, schedule: Q04DX002 (ip), vehicle: saline with Tween-80 100 % of control and 102 % of control | [12] 90 % of control | [15] 92 % of control and 103 % of control | dose: 200.0 mg/kg/injection, schedule: Q04DX002 (ip), vehicle: saline with Tween-80 99 % of control and 86 % of control | [13] 91 % of control | dose: 400.0 mg/kg/injection, schedule: Q01DX009 (ip), vehicle: saline with Tween-80 94 % of control and 96 % of control | dose: 400.0 mg/kg/injection, schedule: Q04DX002 (ip), vehicle: saline with Tween-80 94 % of control

C=C1C(=O)OC2CC3(C)C(OC(C)=O)CC=C(C)C3C(OC(C)=O)C12 (centres undefined) (tested in a mixture with another compound)
inactive: dose: 75.0 mg/kg/injection, schedule: Q01DX001 (ip), vehicle: saline 96 % of control | dose: 150.0 mg/kg/injection, schedule: Q01DX001 (ip), vehicle: saline 100 % of control

O=C(O)CCCc1nc2ccccc2c(=O)[nH]1
inactive: dose: 44.0 mg/kg/injection, schedule: Q01DX001 (ip), vehicle: carboxymethylcellulose (CMC) 101 % of control and 103 % of control | [9] 108 % of control | dose: 66.0 mg/kg/injection, schedule: Q01DX001 (ip), vehicle: carboxymethylcellulose (CMC) 98 % of control and 103 % of control | dose: 100.0 mg/kg/injection, schedule: Q01DX001 (ip), vehicle: carboxymethylcellulose (CMC) 98 % of control and 100 % of control | dose: 150.0 mg/kg/injection, schedule: Q01DX001 (ip), vehicle: carboxymethylcellulose (CMC) 93 % of control and 100 % of control | dose: 200.0 mg/kg/injection, schedule: Q01DX001 (ip), vehicle: carboxymethylcellulose (CMC) 106 % of control | dose: 400.0 mg/kg/injection, schedule: Q01DX001 (ip), vehicle: carboxymethylcellulose (CMC) 101 % of control

COC(=O)N/N=C/c1cc(OC)ccc1O
inactive: [1] 97 % of control | [2] 114 % of control | [3] 104 % of control

COc1ccc([N+](=O)[O-])cc1NC(=O)Nc1ccc(S(N)(=O)=O)cc1
inactive: [21] 101 % of control | [22] 92 % of control | dose: 400.0 mg/kg/injection, schedule: Q01DX009 (ip), vehicle: Klucel (hydroxypropylcellulose) (HPC) 94 % of control

N#CC(/C=C/c1ccco1)Nc1ccccc1C(N)=O (centres undefined)
inactive: [21] 121 % of control | [10] 93 % of control | [22] 121 % of control | [19] 94 % of control | [20] 100 % of control
